This is an account of results in patent US20160045505A1, “COMPOUNDS AND COMPOSITIONS FOR THE TREATMENT OF PARASITIC DISEASES” (NOVARTIS AG, priority 2013, published 2016).

Usually EC50 stands for the midpoint of the concentration-response curve.

Test [1] concerns Leishmania donovani axenic amastigote parasites. In words: Leishmania donovani axenic amastigote proliferation assay (Cell TiterGlo luminescence, 2 day incubation). Type of test: cell-based. Particulars: Leishmania donovani, read-out: L. donovani amastigotes EC50. (In general: Cellular ATP, detected with luciferase, serves as a proxy for viable cell number.)
The test system of test [2] is L. donovani HU3 strain in mouse peritoneal macrophages. In words: Assay for proliferation of Leishmania parasites in infected mouse peritoneal macrophages (SybrGreen staining, high-content imaging, 5 days). Type of test: cell-based, Leishmania donovani. Particulars: Leishmania donovani, Peritoneal macrophage, L. donovani in mouse peritoneal macrophages, read-out: L. donovani Macrophage EC50.

The test system of test [3] is Trypanosoma cruzi amastigotes (Tulahuen strain expressing Lac-Z) cultured in 3T3 fibroblast cells. Kind of test: microbe, parasite or virus in culture. Type of test: cell-based. Particulars: Trypanosoma cruzi, TULAHUEN, Fibroblast, T. cruzi amastigotes in 3T3 fibroblast cells, read-out: T cruzi EC50.
Setting [4] is: axenic amastigotes, inhibition of proliferation.

Read-outs that look alike come from different tables or passages of the source.

For the compound `Cc1nc(C)c(C(=O)Nc2ccc(F)c(-c3cn4cc(NC5=NCCN5C)cnc4n3)c2)o1` [Compound 506], the EC50 in test [1] (L. donovani axenic amastigotes) is greater than 25 µM; in test [2], greater than 25.9 µM; in test [3], greater than 18.2 µM.
Consider `Cc1nc(C)c(C(=O)Nc2ccc(F)c(-c3cn4cc(NC(=O)C5CCCCO5)cnc4n3)c2)o1` (stereo not drawn) [Compound 151], for which the EC50 in test [1] (setting [4]) turned out to be 0.136 µM; in test [2] (inhibition of proliferation) it was 0.429 µM; in test [3] (inhibition of proliferation), 0.59 µM.
In the same order, the values of `CC(C)OC(=O)Nc1cnc2nc(-c3cc(NC(=O)c4ccc(F)s4)ccc3F)cn2c1` [Compound 67] are 0.677 µM, 1.13 µM and 0.136 µM.
As for `Cc1nc(C)c(C(=O)Nc2ccc(Cl)c(-c3cn4cc(N5CCOC5=O)cnc4n3)c2)o1` [Compound 520, N-(4-chloro-3-(6-(2-oxooxazolidin-3-yl)imidazo[1,2-a]pyrimidin-2-yl)phenyl)-2,4-dimethyloxazole-5-carboxamide], the concentration giving a half-maximal response (EC50) is greater than 25 µM in test [1] (L. donovani axenic amastigotes), greater than 50 µM in test [2] and greater than 20 µM in test [3].
In the same order, the values of `COc1cnc2nc(-c3cc(NC(=O)N4CCCC4)ccc3F)cn2c1` [Compound 536, N-(4-fluoro-3-(6-methoxyimidazo[1,2-a]pyrimidin-2-yl)phenyl)pyrrolidine-1-carboxamide] are 0.348 µM, 2 µM and 0.153 µM.
In the same order, the values of `CC1(c2nc(Nc3ccc(F)c(-c4cn5cc(C6CC6)cnc5n4)c3)no2)COC1` [Compound 595, N-(3-(6-cyclopropylimidazo[1,2-a]pyrimidin-2-yl)-4-fluorophenyl)-5-(3-methyloxetan-3-yl)-1,2,4-oxadiazol-3-amine] are greater than 25 µM, greater than 50 µM and 9.17 µM.
In the same order, the values of `Cc1nc(C)c(C(=O)Nc2ccc(F)c(-c3cn4cc(-c5nc(C)c(C)s5)cnc4n3)c2)o1` [Compound 457, N-(3-(6-(4,5-dimethylthiazol-2-yl)imidazo[1,2-a]pyrimidin-2-yl)-4-fluorophenyl)-2,4-dimethyloxazole-5-carboxamide] are 0.162 µM, 13.2 µM and 0.32 µM.
`COC(C)C(=O)Nc1ccc(Cl)c(-c2cn3cc(NC(=O)OC(C)C)cnc3n2)c1` (stereo not drawn) [Compound 54]: the half-maximal effective concentration (EC50) in test [1] (setting [4]) is 1.97 µM; in test [2] (inhibition of proliferation), 14.5 µM; in test [3] (inhibition of proliferation), 1.29 µM.
On the same counts, the results for `CC(C)NC(=O)Nc1ccc(Cl)c(-c2cn3cc(NC(=O)OC(C)C)cnc3n2)c1` [Compound 277] are 6.88 µM, 10.7 µM and 3.9 µM.
In the same order, the values of `CC(C)OC(=O)Nc1cnc2nc(-c3cc(NC(=O)C(C)OCC(F)(F)F)ccc3Cl)cn2c1` (stereo not drawn) [Compound 58] are 14.2 µM, 10.5 µM and 4.53 µM.
On the same counts, the results for `CC(C)OC(=O)Nc1cnc2nc(-c3cc(NC(=O)N4CC(N(C)C(=O)OC(C)(C)C)C4)ccc3F)cn2c1` [Compound 293] are greater than 25 µM, greater than 38.2 µM and greater than 16.5 µM.
On to `CC(C)OC(=O)Nc1cnc2nc(-c3cccc(NC(=O)c4ccc(F)o4)c3)cn2c1` [Compound 3, propan-2-yl N-{2-[3-(5-fluorofuran-2-amido)phenyl]imidazo[1,2-a]pyrimidin-6-yl}carbamate], for which the figures for the EC50 in test [1] (setting [4]), in test [2] (inhibition of proliferation) and in test [3] (inhibition of proliferation) were 0.24 µM, 0.43 µM and 0.51 µM, respectively.
Consider `CC(C)OC(=O)Nc1cnc2nc(-c3cc(NC(=O)c4ccc(C#N)o4)ccc3Cl)cn2c1` [Compound 48], for which the EC50 in test [1] (setting [4]) stood at 0.082 µM; in test [2] (inhibition of proliferation) it was 0.139 µM; in test [3] (inhibition of proliferation), 0.157 µM.
In the case of `CC(C)OC(=O)Nc1cnc2nc(-c3cc(NC(=O)[C@@H](N)c4ccccc4)ccc3F)cn2c1` [Compound 84], the EC50 in test [1] (setting [4]) is greater than 25 µM; in test [2] (inhibition of proliferation), 9.91 µM; in test [3] (inhibition of proliferation), 8.62 µM.
On the same counts, the results for `CC(=O)OC(C)C(=O)Nc1ccc(Cl)c(-c2cn3cc(NC(=O)OC(C)C)cnc3n2)c1` (stereo not drawn) [Compound 56] are 19.2 µM, greater than 50 µM and 11.5 µM.
`CC(C)OC(=O)Nc1cnc2nc(-c3cc(NC(=O)C4CCCO4)ccc3Cl)cn2c1` (stereo not drawn) [Compound 55]: the EC50 in test [1] (setting [4]) was found to be 7.23 µM; in test [2] (inhibition of proliferation), 27.1 µM; in test [3] (inhibition of proliferation), 4.14 µM.
Regarding `Cc1nc(C)c(C(=O)Nc2ccc(F)c(-c3cn4cc(NC(C)C)cnc4n3)c2)o1` [Compound 481], the EC50 in test [1] (L. donovani axenic amastigotes) was determined as 0.209 µM; in test [2], 0.43 µM; in test [3], 0.151 µM.
In the same order, the values of `NNC(=O)Nc1cnc2nc(-c3cc(NC(=O)N4CCCC4)ccc3F)cn2c1` [Compound 521, N-(4-fluoro-3-(6-(hydrazinecarboxamido)imidazo[1,2-a]pyrimidin-2-yl)phenyl)pyrrolidine-1-carboxamide] are 4.68 µM, 38.2 µM and 9.23 µM.
Take `O=C(Nc1ccc(F)c(-c2cn3cc(C4=CCOCC4)cnc3n2)c1)N1CCCC1` [Compound 353]: the EC50 stood at 0.051 µM in test [1] (setting [4]), 0.112 µM in test [2] (inhibition of proliferation) and 0.053 µM in test [3] (inhibition of proliferation).
As for `CC(C)OC(=O)Nc1cnc2nc(-c3cc(NC(=O)c4ccc(F)o4)ccc3F)cn2c1` [Compound 63], the results for the EC50 in test [1] (setting [4]), in test [2] (inhibition of proliferation) and in test [3] (inhibition of proliferation) were 0.089 µM, 0.222 µM and 0.124 µM, respectively.
In the same order, the values of `CC(C)OC(=O)Nc1cnc2nc(-c3cc(NC(=O)N4CCC(NC(=O)OC(C)(C)C)C4)ccc3Cl)cn2c1` (stereo not drawn) [Compound 268] are greater than 25 µM, 14.5 µM and 10.6 µM.
On to `CC(C)OC(=O)Nc1cnc2nc(-c3cc(Nc4cccnc4)ccc3F)cn2c1` [Compound 486], for which the EC50 in test [1] (L. donovani axenic amastigotes) was 16.1 µM; in test [2], greater than 50 µM; in test [3], 1.45 µM.
Regarding `O=C(Nc1ccc(F)c(-c2cn3cc(-n4cn[nH]c4=O)cnc3n2)c1)N1CCCC1` [Compound 534, N-(4-fluoro-3-(6-(5-oxo-1H-1,2,4-triazol-4(5H)-yl)imidazo[1,2-a]pyrimidin-2-yl)phenyl)pyrrolidine-1-carboxamide], the EC50 in test [1] (L. donovani axenic amastigotes) was greater than 23.7 µM; in test [2], greater than 50 µM; in test [3], greater than 20 µM.
Consider `CC(C)(CO)c1nc(Nc2ccc(F)c(-c3cn4cc(C5CC5)cnc4n3)c2)no1` [Compound 596], for which the EC50 was greater than 21.2 µM in test [1] (L. donovani axenic amastigotes), 0.075 µM in test [2] and 3.74 µM in test [3].
On the same counts, the results for `CC(C)NNC(=O)Nc1cnc2nc(-c3cc(NC(=O)N4CCCC4)ccc3F)cn2c1` [Compound 522] are 19.3 µM, greater than 50 µM and greater than 20 µM.
For the compound `CNC(=O)Nc1ccc(F)c(-c2cn3cc(NC(=O)OC(C)C)cnc3n2)c1` [Compound 220], the EC50 in test [1] (setting [4]) came to 0.606 µM; in test [2] (inhibition of proliferation), 4.97 µM; in test [3] (inhibition of proliferation), 1.37 µM.
Turning to `CC(C)OC(=O)Nc1cnc2nc(-c3cc(NC(=O)C4CCCCO4)ccc3Cl)cn2c1` (stereo not drawn) [Compound 57], the EC50 in test [1] (setting [4]) amounted to 0.861 µM; in test [2] (inhibition of proliferation), 2.94 µM; in test [3] (inhibition of proliferation), 0.411 µM.
In the same order, the values of `CC(C)(C)OC(=O)N1CC=C(c2cnc3nc(-c4cc(NC(=O)N5CCCC5)ccc4Cl)cn3c2)CC1` [Compound 343, tert-butyl 4-(2-(2-chloro-5-(pyrrolidine-1-carboxamido)phenyl)imidazo[1,2-a]pyrimidin-6-yl)-5,6-dihydropyridine-1(2H)-carboxylate] are 0.106 µM, 0.308 µM and 0.074 µM.
On the same counts, the results for `COC1CC(NC(=O)Nc2ccc(Cl)c(-c3cn4cc(NC(=O)OC(C)C)cnc4n3)c2)C1` (stereo not drawn) [Compound 284] are greater than 25 µM, 17 µM and 13 µM.
As to `O=C(Nc1ccc(F)c(-c2cn3cc(-c4ccccc4)cnc3n2)c1)N1CCCC1` [Compound 358], the EC50 worked out at 0.03 µM in test [1] (setting [4]), 0.148 µM in test [2] (inhibition of proliferation) and 0.012 µM in test [3] (inhibition of proliferation).
As for `O=C(Nc1ccc(F)c(-c2cn3cc(-c4ccccc4Cl)cnc3n2)c1)N1CCCC1` [Compound 357], the EC50 came to 0.088 µM in test [1] (setting [4]), 0.194 µM in test [2] (inhibition of proliferation) and 0.015 µM in test [3] (inhibition of proliferation).
Regarding `Cc1cnoc1C(=O)Nc1ccc(F)c(-c2cn3cc(NC(=O)OC(C)C)cnc3n2)c1` [Compound 111], the EC50 in test [1] (setting [4]) was greater than 25 µM; in test [2] (inhibition of proliferation) it was greater than 50 µM; in test [3] (inhibition of proliferation) it was greater than 20 µM.
Regarding `Cc1nc(C(=O)Nc2ccc(Cl)c(-c3cn4cc(NC(=O)OC(C)C)cnc4n3)c2)c[nH]1` [Compound 59], the EC50 in test [1] (setting [4]) is greater than 25 µM; in test [2] (inhibition of proliferation), greater than 50 µM; in test [3] (inhibition of proliferation), greater than 20 µM.
On to `Cc1nc(C)c(C(=O)Nc2ccc(F)c(-c3cn4cc(C5CCOCC5)cnc4n3)c2)o1` [Compound 421], for which the EC50 amounted to 0.127 µM in test [1] (L. donovani axenic amastigotes), 0.337 µM in test [2] and 0.17 µM in test [3].
For the compound `COc1cccnc1-c1cnc2nc(-c3cc(NC(=O)c4oc(C)nc4C)ccc3F)cn2c1` [Compound 459], the values for the EC50 in test [1] (L. donovani axenic amastigotes), in test [2] and in test [3] were 0.129 µM, 0.347 µM and 0.119 µM, respectively.
As to `CC(C)OC(=O)Nc1ccc(F)c(-c2cn3cc(NC(=O)OC(C)C)cnc3n2)c1` [Compound 302], the EC50 in test [1] (setting [4]) worked out at 0.305 µM; in test [2] (inhibition of proliferation) it was 0.587 µM; in test [3] (inhibition of proliferation), 0.134 µM.
In the same order, the values of `CC(C)OC(=O)Nc1cnc2nc(-c3cc(NC(=O)N4CCC[C@H]4C(N)=O)ccc3Cl)cn2c1` [Compound 262] are greater than 25 µM, greater than 50 µM and greater than 20 µM.
Take `CC(C)OC(=O)Nc1cnc2nc(-c3cc(NC(=O)N4CCCC4C)ccc3Cl)cn2c1` (stereo not drawn) [Compound 272]: the EC50 in test [1] (setting [4]) was 1.69 µM; in test [2] (inhibition of proliferation), 3.37 µM; in test [3] (inhibition of proliferation), 1.29 µM.
